From patent US20180009764A1, “METHOD FOR TREATING MACROPHAGE MIGRATION INHIBITORY FACTOR (MIF)-IMPLICATED DISEASES AND CONDITIONS WITH IODO PYRIMIDINE DERIVATIVES” (UNIVERSITY OF LOUISVILLE RESEARCH FOUNDATION, INC., priority 2009, published 2018)
≈ marks a conversion by molar mass, not a printed value.

Tests used:
MIF [1] = target: T1, MIF (Homo sapiens, UniProt P14174); assay: MIF cell lysate enzymatic inhibition; assay type: biochemical; conditions: cell lysates
T1 construct: the enzymatic activity of MIF present in cell lysates; endogenous in cells
T1 sequence (P14174 2-115 limits assumed): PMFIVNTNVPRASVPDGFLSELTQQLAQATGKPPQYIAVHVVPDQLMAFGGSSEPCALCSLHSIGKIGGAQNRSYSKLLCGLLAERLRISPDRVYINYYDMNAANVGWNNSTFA
Method: Normal or transformed cell lysates can be used to determine the concentration inhibiting the enzymatic activity of MIF present in cell lysates. Cells are cultured in the appropriate media to the required number of cells, collected, and lysed. Compounds to be characterized are solubilized in DMSO and serial dilutions are performed in order to obtain a range of concentrations including complete and no quantifiable inhibition.

MIF [2] = target: T2, MIF (Mus musculus, UniProt P34884); assay: MIF liver lysates enzymatic activity ex vivo (L-dopachrome tautomerase); conditions: mice; IP 1 mg in corn oil every day for 3 days; livers 6 hours after last injection; FIG. 1
T2 construct: from tissue; host or cells: mouse liver (A7); liver, lung and brain of C57BL6 mice (A20)
Method: This experiment, using an ex-vivo approach and the tautomeric reaction of L-dopachrom, was designed to ascertain the level of inhibition of MIF following administration of the compounds of this invention via oral, IV, IP or any other route of administration. Mice were used in the example illustrated below, but other animals could be used as well. Groups of 3 mice were administered IP 1 mg of 4-IPP and ACT-002 resuspended in 100 μl of corn oil every day for 3 days. Mice were sacrificed 6 hours after the last injection and livers were harvested. ˜1 gram pieces of liver were lysed in PBS containing 1 mM NaVO4, 2 mM NaF and a protease inhibitor cocktail (Roche Biochemical, Indianapolis, Ind.) using dounce-homogenization on ice. 500 μg of liver lysates were added to a final volume of 700 μl PBS in plastic cuvettes. 4 mM L-3, 4-dihydroxyphenylalanine methyl ester and 8 mM sodium periodate (Sigma-Aldrich) were combined in a 3:2 ratio to form L-dopachrome methyl ester. 300 μL of L-dopachrome methyl ester was then immediately added to the cuvettes; the OD475 nm was measured 2 min and 4 min after addition of the L-dopachrome.

[3] = system: primary human T lymphocytes; assay: Anti-CD3 induced T lymphocyte activation/proliferation (flow cytometry); assay type: cell-based; conditions: 25 μM
Method: In order to assess the ability of MIF antagonists to disrupt autoimmune-associated T cell activation, primary human T lymphocytes were prepared using standard Ficoll-gradient preparations. 1×10^6 lymphocytes/ml were resuspended in RPMI/10% FCS and plated onto anti-CD3 antibodies previously immobilized onto tissue culture plates. Control, vehicle control (0.1% DMSO), 25 μM 4-IPP or 25 μM ACT-003 were added to cells and allowed to incubate for 48 hours. Cells were lifted, washed and stained with anti-CD4 or anti-CD8 antibodies and then analyzed by flow cytometry.
To validate the effects of MIF antagonists on T lymphocyte activation, experiments were set up exactly as described above and, 48 hours later, treated and untreated lymphocytes were stained with an anti-CD25 antibody. CD25 is also known as the high affinity IL-2 receptor—a very well characterized and frequently marker of T lymphocyte activation.
In order to investigate the relative kinetics of when 4-IPP and ACT-003 are acting in blocking T lymphocyte activation, we repeated the experiment described above but harvested lymphocytes only 16 hours after anti-CD3 plating. At this early time point during T lymphocyte activation, CD69 is found to be expressed and is usually considered to be an “early marker” of lymphocyte activation.
Finally, to confirm that proliferation of CD4+ and CD8+ T lymphocytes is blocked by 4-IPP-based MIF antagonists, we repeated the experiment as described above, added labeled-BrdU to cells, stained with either labeled anti-CD4 or anti-CD8 antibodies and then assessed relative CD4/CD8 and BrdU labeling in each treatment group.

p53 = p53 up regulation, p53 luciferase assay; assay type: cell-based; conditions: 10 μM; FIG. 5
Method: The up regulation of p53 was determined using a commercially available p53 luciferase assay kit. 1×10^5 cells/ml were plated in a 24 well plate and allowed to adhere overnight. MIF antagonists were added to the cells at the indicated concentrations for 16 hours and transiently co-transfected with 0.125 μg/well of p53-responsive luciferase promoter plasmid (Promega, Madison, Wis.) together with 0.0125 μg/well Renilla pRL-null plasmid (Promega) using Lipofectamine (Invitrogen) transfection reagent. After 24 hrs, Firefly and Renilla luciferase activities were measured by the Dual Luciferase Reporter Assay System (Promega, Madison, Wis.) on a TD-20/20 luminometer (Turner Designs).

[4] = Solubility in varying solvents; assay type: physicochemical; conditions: 21 °C, 20-22° C.
MIF [5] = target: T2, MIF; assay: Oral bioavailability: ex vivo MIF enzymatic activity in liver, brain and lung after IP and PO dosing; design: species or system C57BL6 mice
Method: The compounds were administered orally (PO) and intraperitoneally (IP) to healthy animals. The inhibition of the MIF liver enzymatic activity determined ex vivo following IP and PO dosing is similar, indicating high oral bioavailability. Furthermore, brain and lung tissues were collected and processed to determine MIF enzymatic activity in these organs. […] Inhibition of MIF enzyme was determined […] following dosing of MIF-002 at 40 mg/kg once a day for three days, both IP and PO (normal C57BL6 mice, n=3). Tissues were collected at sacrifice and processed. Liver, lung, and brain tissues were collected, processed, and used for the determination of MIF enzyme activity. Values are expressed as a percentage calculated using DMSO as control (no inhibition).
Two additional compounds were tested, MIF-035 and MIF-041.

Du 145 = assay: Inhibition of tumor cells proliferation (CellTiter Glo); assay type: cell-based; conditions: Homo sapiens, 72 hours
Method: Inhibition of the proliferation of tumor cells was investigated in vitro in several tumor cell lines. Cells of the desired tumor cell line were plated at 2×10^5 cells/ml in 96 well plates. Twice the indicated concentrations of the compounds of the invention were added to cells the following day in an equal volume of media. 72 hours later, cells were lysed and subjected to ATP determination using the CellTiter Glo-Luminescent Cell Viability Assay kit (Promega, Madison, Wis.). Experiments were done in triplicate. Results for the inhibition of cells proliferation are reported as IC50 (the concentration leading to a 50% inhibition of proliferation of the cell population) and are listed in Table 6. FIGS. 3 and 4 show bar graphs comparing the IC50s of specific embodiments of compounds of the invention across multiple tumor cell lines.

[6] = Microsomal stability in human liver microsomes; assay type: in vitro ADME
Method: Stability in human liver microsomes was tested over […] at 37° C. using pooled mixed gender human liver microsomes. Liver microsomes were prepared at 1.0 mg/ml of microsomal protein in a 100 mM potassium phosphate pH 7.4 buffer with 1 mM NADPH. The media was incubated at 37° C. with the compound in solution in DMSO. The concentration of the compound was followed by LC/MS-MS as a function of time. Samples were assayed at t=0, 30, 60 and 120 minutes. Testosterone was used as a positive control. The same experiment was performed with mouse liver microsomes instead of human liver microsomes.

LOX-IMV1 tumor cell line = assay: Inhibition of cell migration (Oris Cell Migration Assay); assay type: cell-based; conditions: 72 hrs, even at low concentrations (0.03 μM), FIG. 7
Method: The LOX-IMV1 tumor cell line was used to determine the inhibition of cell migration using the Oris Cell Migration Assay kit (Promega, Mich.). Briefly, adherent cells were seeded into each well of the kit according to kit instructions. Concentrations of cells in the migration zone were determined to calculate IC50 values. Prior to the migration assay, cell proliferation IC50s were determined to differentiate between inhibition of proliferation and migration. […] A slightly modified method was also used to determine the inhibition of invasion.

[7] = Caco-2 cell permeability and transport; assay type: in vitro ADME; design: Caco-2 Permeability Papp B-A / Caco-2 Permeability Papp A-B: unit not given here; conditions: human, Caco-2, pH 7.4
Method: (§1) Cell permeability and transport mechanisms in Caco-2 and MDR1-MDCK monolayers experiments were performed in triplicate in the apical-to-basolateral and basolateral-to-apical direction using […]® wells containing either Caco-2 or MDR1-MDCK monolayers. A modified Hanks buffer pH 7.4 was used in both reservoir and receiver wells with the addition of 1% BSA in the receiver side. Confluent monolayers were used and their integrity was verified using reference compounds (Atenolol as a low permeability reference compound and Propanolol as a high permeability reference compound). A sample in the basolateral and apical sides was taken after 2 hours and the concentration measured by LC/MS-MS.

Caco-2 monolayers = assay: Caco-2 cell permeability and transport; assay type: in vitro ADME; design: Caco-2 Permeability Papp B-A / Caco-2 Permeability Papp A-B: unit not given here
Method: as §1

[8] = system: Chick Chorioallantoic Membrane (CAM); assay: CAM assay with matrigel plugs; assay type: in vivo
Method: 8 groups with 10 embryos in each group were used in the experiment described below. Fresh fertile eggs were incubated for 3 days in a standard egg incubator at 37° C. for 3 days. On Day 3, eggs were cracked under sterile conditions and embryos were placed into 20×100 mm plastic plates and cultivated at 37° C. in an embryo incubator with a water reservoir on the bottom shelf. Air was continuously bubbled into the water reservoir using a small pump so that the humidity in the incubator is kept constant. On Day 6, a sterile silicon “o” ring was placed on each CAM and test compound dissolved in 0.5% methylcellulose was placed into each “o” ring in a sterile hood. Paclitaxel was used as a positive control. Embryos were returned to the incubator after addition of test material. Control embryos received 10 μL of vehicle alone. On Day 8, embryos were removed from the incubator and kept at room temperature while blood vessel density were determined under each “o” ring using an image capturing system at a magnification of 160×. The blood vessel density was measured using an angiogenesis scoring system in that arithmetic numbers 0 to 5 (or exponential numbers 1 to 32) are used to indicate number of blood vessels present at the treatment sites on the CAM. Number 5 represents the highest density and 0 represents no angiogenesis. The percent of inhibition at each dosing site was calculated using the score recorded for that site divided by the mean score obtained from the appropriate control samples for each individual experiment. The percent of inhibition for each dose of a given compound was calculated by pooling all results obtained for that dose from 8-10 embryos.
Another experiment was performed using a protocol similar to the one described above but using matrigel plugs instead of o ring to deliver the test material to the CAM. Results are summarized in Table 9 below and show a statistically significant inhibition of angiogenesis at the high concentrations of test material.

[9] = Microsomal stability in human liver microsomes; assay type: in vitro ADME; conditions: 15 min; 37° C.; 1 mM NADPH

Compound: Ic1cc(-c2ccccc2)ncn1 [4-IPP, 4-iodo-6-phenylpyrimidine, reference compound]
- IC50 (MIF [1]): > 2000 nM
- MIF liver enzyme inhibition (MIF [2]): significant in vivo inhibition of MIF
- CD69 expression ([3]; 16 hours, FIGS. 17 and 18): only a marginal effect on CD69 expression
- CD4 and CD8 T lymphocytes after anti-CD3 activation ([3]; 48 hours, FIGS. 13 and 14): significantly fewer CD4 and CD8 T lymphocytes
- Anti-CD3-induced CD25 expression ([3]; 48 hours, FIGS. 15 and 16): almost completely blocked the anti-CD3-induced CD25 expression
- BrdU labeling of CD8+ and CD4+ T lymphocytes (proliferation) ([3]; 48 hours, FIGS. 19 and 20): almost completely blocked BrdU labeling in both CD8+ and CD4+ T lymphocytes

Compound: NC(=O)c1cccc(-c2cc(I)ncn2)c1 [ACT-MIF-035, 4-Iodo-6-(3-aminocarbonylphenyl)pyrimidine]
- p53 regulation (p53): implicated in p53 regulation
- IC50 (MIF [1]): 185 nM
- solubility ([4]; aqueous with cosolvent or surfactant or cyclodextrin, Ethanol/Tween 80): 10000 µg/mL (≈ 30.8 mM)
- solubility ([4]; oil or lipid, Corn oil): < 6000 µg/mL
- solubility ([4]; organic solvent or mixture, Ethanol): 1400 µg/mL (≈ 4.31 mM)
- solubility ([4]; organic solvent or mixture, PEG-300): 13300 µg/mL (≈ 40.9 mM)
- solubility ([4]; organic solvent or mixture, Propane-diol): 2700 µg/mL (≈ 8.3 mM)
- Oral bioavailability (MIF [5]; judged from ex vivo MIF inhibition after IP and PO dosing): orally bioavailable
- Crossing of the blood brain barrier (MIF [5]; judged from ex vivo MIF inhibition in brain): crossed the blood brain barrier
- IC50 (Du 145): 21700 nM
- Metabolic Stability in Human Microsomes % Remaining ([6]; both, human, microsomes, 0 h, pH 7.4): 100%
- Metabolic Stability in Human Microsomes % Remaining ([6]; both, human, microsomes, 1 h, pH 7.4): 92%
- Inhibition of cell migration (LOX-IMV1 tumor cell line): significant inhibition of migration
- efflux ratio at 2 h [7]: 1.1
- Caco-2 Permeability Class (Caco-2 monolayers): High
- Caco-2 Permeability Papp A-B (Caco-2 monolayers; apical-to-basolateral, pH 7.4, 2 hours): 3.1
- Caco-2 Permeability Papp B-A (Caco-2 monolayers; basolateral-to-apical, pH 7.4, 2 hours): 3.3
- Blood Vessel Counts ([8]; 0.3 nM per CAM): 28.3 ± 1.7
- Blood Vessel Counts ([8]; 3 nM per CAM): 27.3 ± 2.4
- Blood Vessel Counts ([8]; 30 nM per CAM): 26.7 ± 1.9

Compound: C[C@]12CC[C@H]3[C@@H](CCC4=CC(=O)CC[C@@]43C)[C@@H]1CC[C@@H]2O [Testosterone, reference compound]
- Metabolic Stability in Human Microsomes % Remaining [9]: 56%
- Metabolic Stability in Human Microsomes % Remaining ([6]; 0 min, 37° C., 1 mM NADPH): 100%
